Measurements published in patent US11147801B2, “Methods of use for trisubstituted benzotriazole derivatives as dihydroorotate oxygenase inhibitors” (Aurigene Discovery Technologies Limited, priority 2017, dated 2021).

Legend:
DLBCL_1 tumor = experiment: Patient-derived DLBCL xenograft model DLBCL_1 (triple hit); assay type: in vivo, CB17 SCID mice; settings: 100 mg/kg BID PO
Experimental: A screen was next performed using a small number of mice/group to assess efficacy of Compound 1 in AML and DLBCL patient-derived xenograft models. Tumor-bearing mice (n=3/group) were treated with vehicle or Compound 1 at 100 mg/kg BID PO.

Ramos cells = experiment: Ramos proliferation assay (XTT); assay type: cell-based; settings: Homo sapiens, 72 hrs
Description: Cell proliferation assay is a sensitive method for quantification of viable cells in cytotoxicity or proliferation assay. The XTT (2,3-bis[2-Methoxy-4-nitro-5-sulfophenyl]-2 H-tetrazolium-5-carboxyanilide inner salt) system is a means of measuring the activity of living cells via mitochondrial dehydrogenases. Mitochondrial dehydrogenases of viable cells cleave the tetrazolium ring of XTT, yielding orange formazon crystals which are soluble in aqueous solutions. The XTT solution is potentiated by the addition of an electron coupling agent, phenazine methosulphate (PMS) to the reaction. The resulting orange colour is spectrophotometrically measured at 450 nm. An increase or decrease in cell numbers results in a concomitant change in the amount of formazon formed, indicating the degree of cytotoxicity caused by the test material.
Dissolve 17.7 g IMDM (Iscove's Modified Dulbecco's Medium) powder, 1.5 g sodium bicarbonate pH 7.2-7.4 in 1 L MiliQ water, add 1% Pencilin/ Streptomycin and 10% FBS.
Dissolve 10.6 g Ham's F12 powder, 1.5 g sodium bicarbonate pH 7.2-7.4 in 1 L MiliQ water, add 1% Penicillin/Streptomycin. DMSO used as vehicle.
Ramos cells were re-suspended to a density of 1×10^5 cells/ ml in complete IMDM medium. 95 μL of this cell suspension was added to the 96-well plate to seed ˜10,000 cells per well. The plates were incubated at 37° C. under a humidified atmosphere of 5% CO2 for ˜1 hour before compound addition.
Test compounds (Refer to Table 1) were dissolved in 100% DMSO to generate a 2/6/10/20 mM stock solution. A 200× concentration of the required final concentrations was prepared in DMSO. 10 μL of each concentration (200×) was then diluted in 90 μL of serum-free Ham's F12 medium to get an intermediate concentration of 20× in medium. The DMSO concentration in this step is 10% (Intermediate dilution). 5 μL of each intermediate dilution was then added in triplicates in the previously seeded 96-well plate. The final DMSO concentration was 0.5% in the experimental wells. Cells treated with 0.5% DMSO served as positive control. 100 μL, of complete IMDM medium served as media blank for data analysis. 200 μL, of 1× PBS was added in all corner wells of the assay plate. Plates were then incubated for 72 hrs in an incubator with 5% CO2 at 37° C.
On termination day, 100 μl of XTT solution (1 mg/ml XTT supplemented with 25 μM PMS in Ham's F12 medium) was added to each well. Plates were incubated for 2 hrs. The amount of formazon produced was determined by reading the absorbance of the plate using VICTOR X5 multilabel plate reader at wavelength of 450 nm. The IC50 values were determined as concentrations that reduced cell viability by 50% and the curve was plotted with GraphPad Prism 6.0.
Percent (%) Inhibition was calculated by normalizing DMSO control values to 100% using the formula: % Inhibition=[…](Abs450test compound−blank)/(Abs450positive control−blank)*100
Test compound contains cells, test compound, IMDM medium and 0.5% DMSO
Positive control contains cells, IMDM medium and 0.5% DMSO
Blank contains IMDM medium

DU4475 = experiment: Triple negative breast cancer cell line panel, 96 hours; assay type: cell-based, human; settings: DU4475, 96 hours
Experimental: FIG. 10 is a curve showing the relative growth rate of the DU4475 triple negative breast cancer line treated with various concentrations of Compound 1 for 96 hours.
A panel of triple negative cancer cell lines (TNBC) were screened to evaluate whether a subset of TNBC could potentially benefit from treatment with compound 1 as a single agent.

cancer lines = experiment: Cell growth assays with uridine supplemented into the medium (uridine rescue); assay type: cell-based
Experimental: To confirm that the effects of Compound 1 in impairing cell growth/viability were due to specific inhibition of DHODH, cell growth assays were performed with varying amounts of uridine supplemented into the medium.

SUDHL1 = experiment: Tumor cell line panel screen, 72 hrs; assay type: cell-based; settings: Homo sapiens, SU-DHL-1, SUDHL1, anaplastic large cell lymphoma
Experimental: A tumor cell line panel screen aimed at identifying tumor cell subsets that were particularly sensitive to inhibition of DHODH with Compound 1 was performed. Compound 1 is represented by the following structural formula: […]
These cell lines were treated with Compound 1 for a total of 72 hrs.
Table 1 is a list of some of the sensitive cell lines to Compound 1 along with GI50 values and max growth response. A maximum inhibition of 100 represents complete growth inhibition; a max inhibition value>100 represents cell killing.

DHODH = DHODH (Homo sapiens (Human), UniProt Q02127); experiment: DHODH activity assay (coupled enzyme assay, DCIP reduction); assay type: biochemical; settings: read-out: DHODH inhibition activity, IC50 group
Experimental: The DHODH activity assay is a coupled enzyme assay in which oxidation of DHO and subsequent reduction of ubiquinone are stoichiometrically equivalent to the reduction of DCIP ([…]). The reduction of DCIP is accompanied by a loss of absorbance at 610 nm.
Buffer Preparation: 50 mM tris HCl, 150 mM KCl, and pH 8.0, 0.8% triton.
L-Dihydroorotic acid stock solution of 20 mM in buffer.
2, 6-Dichloroindophenol Sodium salt hydrate stock solution of 20 mM in buffer.
Decylubiquinone stock solution of 20 mM in buffer.
5 μL of Dimethyl sulfoxide or a compound of formula (I) in DMSO solution was added to the wells of a 96 well plate. Compounds of formula (I) were measured at 10 μM.
Protein along with buffer was added, so that the total volume including the DMSO was 87 μL. Compound and protein were incubated for half an hour at room temperature after mixing. 5 μL of 20 mM solution of L-Dihydroorotic acid, 5 μL of 2 mM solution of Decylubiquinone and 3 μL of 2 mM solution of 2, 6-Dichloroindophenol sodium salt hydrate were added to the above solution (total assay volume 100 μL). The mixture was stirred for 2 min and absorbance was recorded at every 10 min at 610 nanometers.
Percent inhibition is calculated as follows: […]
A 2 mM DMSO stock solution of the selected trisubstituted benzoimidazole and benzotriazole derivatives of formula (I) of the present invention to be examined was prepared. Subsequent ⅓rd dilutions were made.
5 μL of each stock of compound of formula (I) was used for each 100 μL assay. Therefore, 5 μL of the 2 mM stock provided 100 μL of 100 μM solution of compound of formula (I), when made up with buffer, protein and substrate. See also: Ulrich et al. (2001) Eur. J. Biochem.268, 1861-1868.

Sequence of DHODH (Q02127 whole entry): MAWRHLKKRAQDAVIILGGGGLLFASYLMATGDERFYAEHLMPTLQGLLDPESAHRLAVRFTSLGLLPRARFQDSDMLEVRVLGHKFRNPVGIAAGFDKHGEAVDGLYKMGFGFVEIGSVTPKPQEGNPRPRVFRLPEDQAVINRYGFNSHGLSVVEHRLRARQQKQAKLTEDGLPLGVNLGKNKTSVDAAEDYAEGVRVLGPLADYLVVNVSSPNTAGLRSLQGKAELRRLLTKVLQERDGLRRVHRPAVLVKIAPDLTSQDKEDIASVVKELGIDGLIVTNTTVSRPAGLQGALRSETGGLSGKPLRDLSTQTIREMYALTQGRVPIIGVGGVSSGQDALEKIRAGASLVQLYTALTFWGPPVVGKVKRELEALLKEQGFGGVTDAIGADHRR

Cc1ccccc1-c1ccc(-c2cc(C(=O)O)c3c(c2)nnn3C)cc1 [Compound 1, 1-methyl-5-(2′-methyl-[1,1′-biphenyl]-4-yl)-1H-benzo[d][1,2,3]triazole-7-carboxylic Acid]
TGI (DLBCL_1 tumor): > 60% | inhibition at 30 µM (Ramos cells; 30 μM, read-out: Maximum % Inhibition at 30 μM): 107% | IC50 (Ramos cells; XTT): 49 nM | Cell viability/growth (DU4475): robustly impaired cell viability/growth | Rescue of growth effects by exogenous uridine (cancer lines; supraphysiologic uridine (25 μM and 100 μM), up to 10 μM of compound): completely rescued | Rescue of growth effects by exogenous uridine (cancer lines; uridine close to physiologic (5 μM)): partially rescued | GI50 (SUDHL1): 40 nM | IC50 (DHODH): < 100 nM
